The numbers were not newly measured in patent US20050182074A1 (Pfizer Inc., priority 2004, published 2005), which cites them from elsewhere.

The conditions of data set [1]: AIDS patient on antiretroviral drugs, voriconazole added.
The conditions of data set [2]: steady state pharmacokinetics of voriconazole.

As to `CC(C)CN(C[C@@H](O)[C@H](Cc1ccccc1)NC(=O)O[C@H]1CCOC1)S(=O)(=O)c1ccc(N)cc1` [amprenavir], in data set [1], the “plasma concentration on addition of voriconazole” value is recorded as “elevated plasma concentrations”.
For `Cc1ccnc2c1NC(=O)c1cccnc1N2C1CC1` [nevirapine], the “plasma concentration on addition of voriconazole” value in data set [1] is “elevated plasma concentrations”.
In the case of `COc1ccc2[nH]c([S+]([O-])Cc3ncc(C)c(OC)c3C)nc2c1` (stereo not drawn) [omeprazole], the “effect on voriconazole exposure” value in data set [2] is given as “no clinically relevant effect”.
